US20160145257A1, “SUBSTITUTED XANTHINES AND METHODS OF USE THEREOF” (Hydra Biosciences, Inc., priority 2013, published 2016)

These compounds were tested against T1, hTRPC5 (Homo sapiens, UniProt Q9UL62) (assay: Whole-cell patch clamp, block of LaCl3-activated TRPC5 inward current). Conditions: TRPC5-expressing HEK293 TREx cells, 80 μM LaCl3, inward current, IC50 estimated from 5 μM and 500 nM, read-out: hTRPC5 Patch La3+ Inwd (nM) (All Batches).
T1 construct: expressed in transfected cells; host or cells: HEK293 TREx cells with inducible TRPC5 expression
T1 sequence (Q9UL62 1-973): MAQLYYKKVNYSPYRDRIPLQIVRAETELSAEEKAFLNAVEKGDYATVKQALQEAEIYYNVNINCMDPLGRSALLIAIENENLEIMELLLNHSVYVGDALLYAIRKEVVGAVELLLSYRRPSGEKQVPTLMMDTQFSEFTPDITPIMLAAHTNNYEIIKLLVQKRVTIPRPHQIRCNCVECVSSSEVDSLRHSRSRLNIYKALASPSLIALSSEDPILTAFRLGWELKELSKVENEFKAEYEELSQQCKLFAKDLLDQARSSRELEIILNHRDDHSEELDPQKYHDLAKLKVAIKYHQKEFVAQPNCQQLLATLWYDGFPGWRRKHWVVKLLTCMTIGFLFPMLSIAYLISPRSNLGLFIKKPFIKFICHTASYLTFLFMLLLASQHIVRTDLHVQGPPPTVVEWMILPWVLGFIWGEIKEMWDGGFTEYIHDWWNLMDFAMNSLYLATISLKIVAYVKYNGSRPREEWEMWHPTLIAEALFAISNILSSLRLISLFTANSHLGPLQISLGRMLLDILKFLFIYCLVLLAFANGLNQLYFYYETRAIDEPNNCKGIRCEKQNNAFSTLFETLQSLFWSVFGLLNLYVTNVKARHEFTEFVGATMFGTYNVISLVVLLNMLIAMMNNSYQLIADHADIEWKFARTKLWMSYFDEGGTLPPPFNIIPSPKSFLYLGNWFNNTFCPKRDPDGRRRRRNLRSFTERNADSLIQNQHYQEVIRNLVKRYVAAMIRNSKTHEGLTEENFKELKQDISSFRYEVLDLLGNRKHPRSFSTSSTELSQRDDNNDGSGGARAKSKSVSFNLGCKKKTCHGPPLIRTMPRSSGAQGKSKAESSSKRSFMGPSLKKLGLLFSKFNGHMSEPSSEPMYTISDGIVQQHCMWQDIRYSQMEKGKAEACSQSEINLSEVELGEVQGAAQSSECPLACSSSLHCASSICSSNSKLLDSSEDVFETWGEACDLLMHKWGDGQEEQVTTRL
Assay type: cell-based
Procedure, shortened: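 Whole-cell recordings in induced TRPC5-expressing HEK293 TREx cells, holding −40 mV, 400 ms ramps −120 to +100 mV every 5 s; current activated by 80 μM external LaCl3 and 1,400 nM pipette free Ca2+ (pH 7.2 internal, 7.4 external). Inward block at −80 mV, with LaCl3 present; IC50 estimated from testing at 5 μM and 500 nM.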

| IC50 [nM] | SMILES |
| --- | --- |
| < 100 | Cn1c(=O)c2c(nc(Oc3cccc(OC(F)(F)F)c3)n2Cc2ccc3ccccc3c2)n(C)c1=O [Compound 191, 1,3-dimethyl-7-(naphthalen-2-ylmethyl)-8-(3-(trifluoromethoxy)phenoxy)-1H-purine-2,6(3H,7H)-dione] |
| < 100 | Cn1c(=O)c2c(nc(Oc3cccc(OC(F)(F)F)c3)n2Cc2ccc(Cl)c(Cl)c2)n(C)c1=O [Compound 197, 7-(3,4-dichlorobenzyl)-1,3-dimethyl-8-(3-(trifluoromethoxy)phenoxy)-1H-purine-2,6(3H,7H)-dione] |
| < 100 | CCCCCCOc1nc2c(c(=O)n(C)c(=O)n2C)n1Cc1ccc(Cl)cc1 [Compound 215, 7-(4-Chlorobenzyl)-8-(hexyloxy)-1,3-dimethyl-1H-purine-2,6(3H,7H)-dione] |
| < 100 | Cn1c(=O)c2c(nc(Oc3cccc(OC(F)(F)F)c3)n2Cc2cccc(Br)c2)n(C)c1=O [Compound 115, 7-(3-bromobenzyl)-1,3-dimethyl-8-(3-(trifluoromethoxy)phenoxy)-1H-purine-2,6(3H,7H)-dione] |
| 500 to 1000 | CCCOCCc1nc2c(c(=O)n(C)c(=O)n2C)n1Cc1ccc(Cl)cc1 [Compound 93] |
| 100 to 500 | CCc1coc(CSc2nc3c(c(=O)n(C)c(=O)n3C)n2Cc2ccc(F)cc2)n1 [Compound 156, 8-((4-ethyloxazol-2-yl)methylthio)-7-(4-fluorobenzyl)-1,3-dimethyl-1H-purine-2,6(3H,7H)-dione] |
| 2000 to 10000 | CCNCCCc1nc2c(c(=O)n(C)c(=O)n2C)n1Cc1cccc(Br)c1 [Compound 53] |
| < 100 | CCCC(=O)C(C)(C)Sc1nc2c(c(=O)n(C)c(=O)n2C)n1Cc1cccc(Br)c1 [Compound 150, 7-(3-bromobenzyl)-1,3-dimethyl-8-(2-methyl-3-oxohexan-2-ylthio)-1H-purine-2,6(3H,7H)-dione] |
| 1000 to 2000 | CCOCCS(=O)(=O)c1nc2c(c(=O)n(C)c(=O)n2C)n1Cc1cccc(Br)c1 [Compound 14, 7-(3-bromobenzyl)-8-(2-ethoxyethylsulfonyl)-1,3-dimethyl-1H-purine-2,6(3H,7H)-dione] |
| < 100 | CCOC(=O)C(C)(C)Sc1nc2c(c(=O)n(C)c(=O)n2C)n1Cc1cccc(Br)c1 [Compound 9, Ethyl 2-(7-(3-bromobenzyl)-1,3-dimethyl-2,6-dioxo-2,3,6,7-tetrahydro-1H-purin-8-ylthio)-2-methylpropanoate] |
| 2000 to 10000 | Cn1c(=O)c2c(nc(CN3CCOCC3)n2Cc2cccc(Br)c2)n(C)c1=O [Compound 52] |
| < 100 | Cn1c(=O)c2c(nc(Oc3cccc(OC(F)(F)F)c3)n2Cc2ccc(Cl)c(F)c2)n(C)c1=O [Compound 198, 7-(4-chloro-3-fluorobenzyl)-1,3-dimethyl-8-(3-(trifluoromethoxy)phenoxy)-1H-purine-2,6(3H,7H)-dione] |
| 2000 to 10000 | CCCOCCc1nc2c(c(=O)n(C)c(=O)n2C)n1Cc1cccc(C(C)=O)c1 [Compound 159] |
| 2000 to 10000 | CCOCCNc1nc2c(c(=O)n(C)c(=O)n2C)n1Cc1cccc(Br)c1 [Compound 21] |
| 2000 to 10000 | Cn1c(=O)c2c(nc(OCCCCCO)n2Cc2ccc(Cl)cc2)n(C)c1=O [Compound 217, 7-(4-Chlorobenzyl)-8-((5-hydroxypentyl)oxy)-1,3-dimethyl-1H-purine-2,6(3H,7H)-dione] |
| 100 to 500 | CCc1coc(CSc2nc3c(c(=O)n(C)c(=O)n3C)n2Cc2ccc(C)cc2)n1 [Compound 133, 8-((4-ethyloxazol-2-yl)methylthio)-1,3-dimethyl-7-(4-methylbenzyl)-1H-purine-2,6(3H,7H)-dione] |
| 2000 to 10000 | CCOc1nc2c(c(=O)n(C)c(=O)n2C)n1Cc1cccc(Cl)c1 [Compound 154, 7-(3-Chlorobenzyl)-8-ethoxy-1,3-dimethyl-1H-purine-2,6(3H,7H)-dione] |
| 2000 to 10000 | Cn1c(=O)c2c(nc(CCCN3CCCC3)n2Cc2cccc(Br)c2)n(C)c1=O [Compound 81] |
| 1000 to 2000 | CCCOCCc1nc2c(c(=O)n(C)c(=O)n2C)n1Cc1cccc(Br)c1 [Compound 42, 7-(3-Bromobenzyl)-1,3-dimethyl-8-(2-propoxyethyl)-1H-purine-2,6(3H,7H)-dione] |
| 100 to 500 | CCCOCCc1nc2c(c(=O)n(C)c(=O)n2C)n1Cc1cccc(-c2ccccc2)c1 [Compound 128, 7-(biphenyl-3-ylmethyl)-1,3-dimethyl-8-(2-propoxyethyl)-1H-purine-2,6(3H,7H)-dione] |

| IC50 [nM] | SMILES |
| --- | --- |
| 1000 to 2000 | CCCOCCCc1nc2c(c(=O)n(C)c(=O)n2C)n1Cc1cccc(Br)c1 [Compound 82, 7-(3-bromobenzyl)-1,3-dimethyl-8-(3-propoxypropyl)-1H-purine-2,6(3H,7H)-dione] |
| 2000 to 10000 | CCOC(=O)/C=C/c1nc2c(c(=O)n(C)c(=O)n2C)n1Cc1cccc(Br)c1 [Compound 36] |
| 500 to 1000 | CCOC(=O)C(C)Cc1nc2c(c(=O)n(C)c(=O)n2C)n1Cc1cccc(Br)c1 (stereo not drawn) [Compound 87] |
| 2000 to 10000 | Cn1c(=O)c2c(nc(SCc3cccnc3)n2Cc2cccc(Br)c2)n(C)c1=O [Compound 10, 7-(3-bromobenzyl)-1,3-dimethyl-8-(pyridin-3-ylmethylthio)-1H-purine-2,6(3H,7H)-dione] |
| 2000 to 10000 | CCCOCCc1nc2c(c(=O)n(C)c(=O)n2C)n1Cc1ccc(C(N)=O)cc1 [Compound 149] |
| 1000 to 2000 | Cn1c(=O)c2c(nc(Oc3cccc(F)c3)n2Cc2cccc(Br)c2)n(C)c1=O [Compound 111, 7-(3-bromobenzyl)-8-(3-fluorophenoxy)-1,3-dimethyl-1H-purine-2,6(3H,7H)-dione] |
| 2000 to 10000 | CCCCc1cccc(Oc2nc3c(c(=O)n(C)c(=O)n3C)n2Cc2cccc(Br)c2)c1 [Compound 174, 7-(3-bromobenzyl)-8-(3-butylphenoxy)-1,3-dimethyl-1H-purine-2,6(3H,7H)-dione] |
| 100 to 500 | CCc1ccccc1Oc1nc2c(c(=O)n(C)c(=O)n2C)n1Cc1ccc(Cl)cc1 [Compound 74] |
| 2000 to 10000 | COc1cccc(Cn2c(Oc3ccc(-c4ccccc4)nc3)nc3c2c(=O)n(C)c(=O)n3C)c1 [Compound 171] |
| 1000 to 2000 | CC(=O)c1cccc(Oc2nc3c(c(=O)n(C)c(=O)n3C)n2Cc2cccc(Br)c2)c1 [Compound 114, 8-(3-acetylphenoxy)-7-(3-bromobenzyl)-1,3-dimethyl-1H-purine-2,6(3H,7H)-dione] |
| 2000 to 10000 | CCOc1nc2c(c(=O)n(C)c(=O)n2C)n1Cc1cccc(Br)c1 [Compound 28, 7-(3-bromobenzyl)-8-ethoxy-1,3-dimethyl-1H-purine-2,6(3H,7H)-dione] |
| 100 to 500 | Cn1c(=O)c2c(nc(Oc3cccc(C(F)(F)F)c3)n2Cc2ccc(Cl)cc2)n(C)c1=O [Compound 73] |
| 1000 to 2000 | Cn1c(=O)c2c(nc(Oc3cncc(C(F)(F)F)c3)n2Cc2ccc(Cl)cc2)n(C)c1=O [Compound 184, 7-(4-chlorobenzyl)-1,3-dimethyl-8-(5-(trifluoromethyl)pyridin-3-yloxy)-1H-purine-2,6(3H,7H)-dione] |
| < 100 | Cc1cccc(Cn2c(Oc3cccc(OC(F)(F)F)c3)nc3c2c(=O)n(C)c(=O)n3C)c1 [Compound 167, 1,3-dimethyl-7-(3-methylbenzyl)-8-(3-(trifluoromethoxy)phenoxy)-1H-purine-2,6(3H,7H)-dione] |
| 2000 to 10000 | Cn1c(=O)c2c(nc(Oc3cccc(C#N)c3)n2Cc2cccc(Br)c2)n(C)c1=O [Compound 112, 3-(7-(3-bromobenzyl)-1,3-dimethyl-2,6-dioxo-2,3,6,7-tetrahydro-1H-purin-8-yloxy)benzonitrile] |
| 2000 to 10000 | CCCOCCc1nc2c(c(=O)n(C)c(=O)n2C)n1Cc1ccc(F)cc1 [Compound 108] |
| 2000 to 10000 | Cn1c(=O)c2c(nc(CC(=O)O)n2Cc2cccc(Br)c2)n(C)c1=O [Compound 25, 2-(7-(3-bromobenzyl)-1,3-dimethyl-2,6-dioxo-2,3,6,7-tetrahydro-1H-purin-8-yl)acetic acid] |
| 100 to 500 | CC(c1ccc(Cl)cc1)n1c(Oc2cccc(C(F)(F)F)c2)nc2c1c(=O)n(C)c(=O)n2C (stereo not drawn) [Compound 187, 7-(1-(4-chlorophenyl)ethyl)-1,3-dimethyl-8-(3-(trifluoromethyl)phenoxy)-1H-purine-2,6(3H,7H)-dione] |
| 2000 to 10000 | CCCOC(=O)Cc1nc2c(c(=O)n(C)c(=O)n2C)n1Cc1cccc(Br)c1 [Compound 26, Propyl-2-(7-(3-bromobenzyl)-1,3-dimethyl-2,6-dioxo-2,3,6,7-tetrahydro-1H-purin-8-yl)-acetate] |
